We go through 2 substances from US20230002756A1, “High Performance Platform for Combinatorial Genetic Screening” (THE TRUSTEES OF THE UNIVERSITY OF PENNSYLVANIA, priority 2019, published 2023).

The test system of data set [1] is HEK293T d2GFP reporter line. Briefly: GFP disruption assay. As to conditions: for gene editing activity / efficiency (GFP reporter disruption): HEK293T GFP reporter cell line. The data set is classed as cell-based, human. The source says:
GFP disruption assay. HEK293T cells were first lentivirally transduced with a destabilized GFP (d2GFP) reporter (derived from Addgene #14760). The resulting HEK293T d2GFP reporter line was then transiently transfected with indicated AsCas12a vector and a vector expressing GFP-targeting crRNA. This d2GFP HEK293T reporter line was used to evaluate the knockout efficiency of seven Addgene-available Cas12a systems (Butyrivibrio sp., Thiomicrospira sp. XS5, Moraxella bovoculi, Prevotella bryantii, Bacteroidetes oral, Lachnospiraceae bacterium, and Acidaminococcus). In addition, AsCas12a vector contained 1, 2, 4, or 6 SV40 or c-Myc NLS cloned into either the N- or C-terminus. The crRNA vector contained an expression marker for mCherry for successful transfection tracking. Cells were cultured for 3 days and subjected to flow cytometry to measure knockdown of GFP using the Guava Easycyte 10 HT instrument (Millipore). Percent GFP disruption is plotted. Two independent GFP-targeting crRNA are presented.

Another data set relates to K562 cells. In words: Competition-based cellular proliferation assay. The data set is classed as cell-based. An excerpt:
Competition-based cellular proliferation assays. Indicated AsCas12a-expressing cell lines were infected with a lentivirus (pRG212) encoding crRNA, targeting essential genes or known cancer dependencies, linked to a GFP reporter, to track successful transduction, at a multiplicity of infection (MOI) of around 0.2-0.5. The percentage of crRNA-positive (GFP-positive) cell population was monitored over time using the Guava Easycyte 10 HT instrument (Millipore). To assess the impact of a specific single-crRNA or dual-crRNA on cellular proliferation, final time point GFP % was divided by initial time point GFP % to calculate the negative selection fold-change of the crRNA-positive cell population.
To address the low knockout efficiency in mammalian cells, the AsCas12a system was subjected to three levels of optimization. In order to evaluate the knockout efficiency of the system, AsCas12a and its crRNA were expressed using a two-vector lentiviral expression strategy and conducted a competition-based cellular proliferation assay, a reliable proxy for dropout screening (FIG. 1A, 1B). crRNAs targeting known essential genes were designed, including replication protein PCNA and cyclin-dependent kinase CDK1. AsCas12a knockout efficiency was then assessed by measuring the negative selection strength of essential gene-targeting crRNAs in a 16-day time-course. […]

“Also recorded” adds a separate entry of the source.

Consider “AsCas12a: Acidaminococcus Cas12a, wild type RNA-programmable DNA endonuclease”, for which the “gene editing activity / efficiency (GFP reporter disruption)” value in data set [1] is given as “high gene editing activity”. For the same substance, in data set [1] (in human cells), the “knockout efficiency relative to SpCas9” value is given as “approximately one third”.
As to “enAsCas12a: AsCas12a with E174R and S542R mutations, used with 6xNLS and dual-DR crRNA; the improved/engineered Cas12a system”, in the data set on K562 cells (crRNAs targeting essential genes PCNA and CDK1, 16-day time-course), the knockout efficiency entry was “enhances knockout efficiency”. Besides, in the data set with K562 cells (non-targeting crRNAs and crRNAs targeting introns of PCNA and CDK1), the “effect on cellular proliferation (toxicity to the cells)” value was “no obvious effect on cellular proliferation; also recorded: does not significantly affect cellular proliferation”. For the same substance, the “gene editing activity / efficiency (GFP reporter disruption)” value in data set [1] is recorded as “comparable to Cas9”.
